Assay results as given in the NIST ThermoML archive (doi:10.1016/j.jct.2019.03.001).
Numbers after ± are expanded uncertainties.

Assay: refractive index (Na D-line) (dimensionless)
Details: 293.15 K; 101.33 kPa; Liquid; Standard Abbe refractometry

## CCCCO [butan-1-ol]
  refractive index: 1.3993 ± 0.0007
